Here are results for one molecule from patent US11219607B2, “Methods for suppressing cancer-related cachexia” (Ohio State Innovation Foundation, priority 2013, dated 2022).

In assay [1] the test system is gastrocnemius muscle fibers of C-26 tumor-bearing mice. The assay is described as follows: Morphometric analysis of muscle fiber size, C-26 model. The assay is classed as in vivo, CD2F1 mice. The settings on record: day 15, tumor-bearing/vehicle 1297.6±638.8, tumor-free control 2503.5±917.5, mean±S.D. As to the method:
Ten-μm sections were cut from frozen skeletal muscle samples using a cryostat (Leica) and then stained with H&E. Images were captured using an Olympus BX51 microscope (Olympus America, Inc.) and muscle fiber cross-sectional areas were determined using Olympus CellSens 1.11 software. Measurements were obtained from five different sections of muscle from each of five mice from each group.
The protective effect of AR-42 against muscle wasting was manifested by the abrogation of cachexia-induced reduction in skeletal muscle fiber size. […] The prominent shift in fiber size distribution to smaller cross-sectional area in cachectic muscles of tumor-bearing/vehicle mice was reversed by AR-42 (FIG. 2A, right)

A further assay deals with Atrogin-1/MAFbx mRNA. The assay is described as follows: qPCR of gastrocnemius muscle, C-26 model: Atrogin-1. In kind it is in vivo, CD2F1 mice. The settings on record: C-26 tumor-bearing mice, 15 days after tumor cell injection, tumor-bearing/vehicle 29.4±3.5-fold, mean±S.D. As to the method:
(§1) Total RNA was isolated from homogenized gastrocnemius muscles (n=3/group) with TRIzol reagent (Life Technologies, Carlsbad, Calif.) and then purified using the RNAeasy Mini Kit (Qiagen, Valencia, Calif.). qRT-PCR was performed as described previously (42) by using the Bio-Rad CFX96 Real-Time PCR Detection System with iQ SYBR Green Supermix (Bio-Rad, Hercules, Calif.). RNA-seq library generation and data analysis were performed at The Ohio State University Comprehensive Cancer Center (OSUCCC) Nucleic Acid Shared Resource.
(§2) AR-42 was able to restore expression of Atrogin-1 (2.7±0.7-fold) and MuRF1 (1.1±0.2-fold) mRNA to basal levels […].
Background: Real-time PCR tracks product formation cycle by cycle.

In a further assay the test system is MuRF1 mRNA. Kind of assay: qPCR of gastrocnemius muscle, C-26 model: MuRF1. The assay is classed as in vivo, CD2F1 mice. The settings on record: C-26 tumor-bearing mice, 15 days after tumor cell injection, tumor-bearing/vehicle 25.8±3.9-fold, mean±S.D. Here is the method:
as §1, §2

In the next assay the test system is LLC tumor-bearing mice. Kind of assay: LLC mouse model of cachexia, hindlimb muscle mass. In kind it is in vivo. The settings on record: LLC tumor-bearing C57BL/6 mice, 50 mg/kg p.o. every other day, day 6 to day 20. As to the method:
In another aspect, subcutaneous tumors were established in male C57BL/6 mice (approximately 6 weeks of age; Harlan) by injection of 0.5×10^6 LLC cells into the right flank. Treatment with AR-42 and vehicle was performed as for the C-26 model beginning 6 days after cell injection. In both models, body weights and food consumption were monitored daily and tumor size was measured no less than every two days. Mice were fasted for 2 hours prior to sacrifice, at which time, hind limb muscles, heart, spleen, epididymal fat, and blood were collected and the weights of the solid tissues were measured. Muscle samples were frozen in liquid nitrogen-chilled 2-methylbutane and then stored at −80° C. until analysis.
To confirm that the anti-cachectic activity of AR-42 was not specific to the C-26 model, it was also evaluated in the LLC model. C57BL/6 mice bearing subcutaneous LLC tumors were treated with AR-42 (50 mg/kg, p.o., every other day) starting on day 6 after tumor cell injection, and continuing until day 20 when hind limb muscles were harvested at sacrifice.
To confirm that the anti-cachectic activity of AR-42 was not specific to the C-26 model, it was also evaluated in the LLC model. C57BL/6 mice bearing subcutaneous […] LLC tumors were treated with AR-42 (50 mg/kg, p.o., every other day) starting on day 6 after tumor cell injection, and continuing until day 20 when hind limb muscles were harvested at sacrifice.

The next assay relates to TNF. The assay is described as follows: Serum cytokine profiling, C-26 model: TNF. In kind it is in vivo, CD2F1 mice. The settings on record: C-26 tumor-bearing mice. An excerpt: Gastrocnemius muscles and sera were collected at day 17 post-cell injection from each treatment group (n=8/group). Muscle was submitted to Metabolon, Inc. (Durham, N.C.) for metabolomic analysis of 270 metabolic intermediates via proprietary mass spectrometry platforms. Serum was submitted to Eve Technologies (Alberta, Canada) for analysis of 32 cytokines using a mouse cytokine array (32-plex panel).
To shed light onto the mechanism by which AR-42 mediated its anti-cachectic effect, sera and gastrocnemius muscle from vehicle- or AR-42-treated tumor-free and C-26 tumor-bearing mice were used for cytokine profiling analysis and whole transcriptome shotgun sequencing (RNA-seq), respectively.

The subject of assay [2] is IL-6 receptor alpha chain (IL-6Rα) mRNA. The assay is described as follows: qPCR of skeletal muscle, C-26 model: IL-6Rα. The assay is classed as in vivo, CD2F1 mice. The settings on record: muscle of C-26 tumor-bearing mice; tumor-bearing/vehicle 13±1.4-fold. As to the method: as §1
Cytokine profiles. […] AR-42 reduced IL-6 and LIF levels by 56% and 88%, respectively, in tumor-bearing mice (IL-6, 102±38 pg/ml; LIF, 3.8±1.6 pg/ml) compared to the vehicle-treated counterparts. In light of the ability of AR-42 to blunt cachexia-associated increases in IL-6, we examined the effect of AR-42 on intramuscular mRNA levels of IL-6 receptor alpha chain (IL-6Rα). […] AR-42 reduced this cachexia-induced increase by 85% (2.0±0.2-fold; n=10)(FIG. 5, lower).

The subject of assay [3] is global gene expression in muscle of C-26 tumor-bearing mice. Kind of assay: RNA-seq of gastrocnemius muscle, C-26 model. In kind it is in vivo, CD2F1 mice. Here is the method:
as §1
Data analysis was conducted by using SAS 9.3 software (SAS, Inc; Cary, N.C.). For the experiments with repeated measures, data were analyzed by mixed effect models, incorporating observational dependencies across each subject. For other experiments involving independent groups, data were analyzed by ANOVA. For the time-to-event experiment (FIG. 2B), the difference in survival functions were compared by log-rank tests. Multiplicities were adjusted by Holm's method to control the overall family-wise error rate at 0.05. RNA-seq data were analyzed by using Ingenuity Pathway Analysis (IPA) software (Ingenuity Systems, Redwood City, Calif.). Only genes with >4-fold change and P<0.05 were selected for pathway analysis. […]
RNA quality was assessed on an Agilent 2100 Bioanalyzer using a Pico RNA chip and the input total RNA amount was assessed using Agilent Qubit RNA assay. […] The resultant libraries were assessed for quantity and quality using Agilent Qubit DNA assay and with PerkinElmer Labchip DNA GX analysis, respectively. All libraries were mixed in equal proportions generating pools of samples that would yield approximately 40 million passed filter reads when sequenced on Illumina HiSeq 2500 sequencer. The raw sequencing data from the Illumina HiSeq CASAVA pipeline were assessed for quality using FastQC, RNASeQC and RSeQC software. […]

For `CC(C)[C@H](C(=O)Nc1ccc(C(=O)NO)cc1)c1ccccc1` [AR-42, (S)—N-hydroxy-4-(3-methyl-2-phenylbutanamido)benzamide], the “mean cross-sectional area of muscle fibers” value in assay [1] turned out to be 2146.3±923.4 μm^2. In the assay on Atrogin-1/MAFbx mRNA, the “Atrogin-1 mRNA level relative to tumor-free/vehicle control” value is 2.7±0.7 fold. Besides, the “MuRF1 mRNA level relative to tumor-free/vehicle control” value with MuRF1 mRNA turned out to be 1.1±0.2 fold. Also, the “tibialis anterior mass, % of non-cachectic control” value in the assay on LLC tumor-bearing mice (vehicle 80.3±4.0%) was found to be 93.4±3.9%. In addition, in the assay with LLC tumor-bearing mice (vehicle 81.7±3.7%), the “gastrocnemius mass, % of non-cachectic control” value was found to be 92.2±3.5%. Also, the “quadriceps mass, % of non-cachectic control” value in the assay on LLC tumor-bearing mice (vehicle 84.4±4.6%) came to 93.4±4.8%. Further, the “effect on serum TNF levels” value with TNF was “no effect”. Besides, the “IL-6Rα mRNA level compared to tumor-free mice” value in assay [2] is recorded as 2.0±0.2 fold. In assay [3], the “number of downregulated genes (4-fold or greater), AR-42- versus vehicle-treated tumor-bearing mice” value stood at 301 genes and the “number of upregulated genes (4-fold or greater), AR-42- versus vehicle-treated tumor-bearing mice” value was 376 genes. Also, the “number of genes with 4-fold or greater differential expression, AR-42- versus vehicle-treated tumor-bearing mice” value in assay [3] (total) is 677 genes.
